≈ marks a conversion by molar mass, not a printed value.
Legend:
Assay type in all cases: functional
Carpophilus [1] = test: Reduction of feeding rate in Carpophilus hemipterus larvae at 100 ppm dietary level relative to control; design: scale not given: the % may be the effect or the level left
[2] = Cytotoxicity against human NCI60 cells
Carpophilus [3] = test: Reduction of feeding rate in adult Carpophilus hemipterus at 100 ppm dietary level relative to control; design: scale not given: the % may be the effect or the level left

SMILES	Activity (Carpophilus [1])	GI50 [2]	Activity (Carpophilus [3])
COc1c(-c2ccc(O)cc2)c(O)cc2c1oc1cc(O)c(OCC=C(C)C)cc12 [ARENARIN A]	13%	4.8 µg/mL (≈ 11.8 µM)	13%
C=C(C)C1Cc2c(ccc(O)c2OC/C=C(\C)CO)C2=C1C(=O)C(c1ccc(O)cc1)=C(OC)C2=O (stereo unspecified) [ARENARIN B]		3.8 µg/mL (≈ 7.78 µM)	20%
C=C(C)C1Cc2c(ccc(OC)c2OC/C=C(\C)CO)C2=C1C(=O)C(c1ccc(O)cc1)=C(OC)C2=O (stereo unspecified) [ARENARIN C]			13%

Source: ChEMBL document CHEMBL1150896, “Arenarins A-C: new cytotoxic fungal metabolites from the sclerotia of aspergillus arenarius” (1998)
